Results: patent US9505765B2, “4-alkoxy/aralkoxy-5-substituted-pyrrolopyrimidine compounds as TAK1 inhibitors in disease treatment” (Confluence Life Sciences Inc., priority 2012, dated 2016)

Legend:
[1] = molecular target: TAK1-TAB1 (Homo sapiens (Human), UniProt O43318); test: TAK1-TAB1 competitive binding assay (LanthaScreen), without pre-incubation; conditions: 10 nM TAK1-TAB1, 100 nM kinase tracer-236, read-out: TAK1-TAB1 Inhibition IC50
Description: TAK1-TAB1 Binding Inhibitory Potency: The ability of candidate compounds to interact with TAK1-TAB1 is quantitated by a competitive binding assay using the LanthaScreen technology developed by Life Technologies. This assay is based on the binding of a proprietary, Alexa Fluor® 647-labeled, ATP-competitive kinase inhibitor (kinase tracer-236) to the TAK1-TAB1 construct in presence of a europium-conjugated antibody, resulting in a FRET (fluorescence resonance energy transfer) signal. Displacement of the kinase tracer by compound results in a lower emission ratio upon excitation of the europium chelate. Candidate compounds are designed as potential irreversible inhibitors of TAK1-TAB1, capable of ligating to an active site cysteine residue. The time dependent nature of irreversible inhibition is investigated by performing the binding assay with and without a pre-incubation of compound and TAK1-TAB1.
The inhibitory potency of candidate compounds is measured in 20 mM HEPES pH 7.5, 10 mM MgCl2, 0.01% BSA, 0.0005% Tween-20, and 2% DMSO in the presence of 10 nM TAK1-TAB1, 2 nM Eu-anti-his antibody, and 100 nM kinase tracer-236 using a 384-well plate format. Background signal is defined in the absence of TAK1-TAB1 and uninhibited signal is defined in the presence of vehicle (2% DMSO) alone. Compounds were evaluated in an 11 point dose-response ranging from 20 μM to 0.34 nM. The binding assays are performed under two conditions to evaluate time dependence of inhibition. For the pre-incubation assay, TAK1-TAB1 and Eu-anti-his antibody are preincubated with compound or vehicle for two hours prior to the addition of kinase tracer. The non-preincubated assay is run in which TAK1-TAB1 and Eu-anti-his antibody are added to a mixture of compound and kinase tracer. IC50 values of compounds are determined using a 4 parameter logistical fit of emission ratio as a function of the concentration of compound.
Compounds were tested in accordance with the above described assay, without pre-incubation, yielding the values described below: […]

[2] = test system: A549 cells; test: IL-1β stimulated IL-6 Production in A549 cells; assay type: cell-based; conditions: Homo sapiens, 1 ng/ml rhIL1β, 18 hrs; for IC50: read-out: IL-6 Production IC; for activity at 5 µM: 5 μM compound, read-out: IL-6 Production % Control 5 μM; for activity at 50 µM: 50 μM compound, read-out: IL-6 Production % Control 50 μM
Experimental: IL-1β stimulated IL-6 Production in A549 cells: The cellular efficacy of compound candidates is determined using the human lung epithelial cell line A549 (ATCC #CCL-185), based upon the methods of Wheeler et al. (2004) J. Nutrition 134, 1039-1044, and Eda et al. (2011) Cell Biol. Int. 35, 355-358. A549 cells produce a number of cytokines (IL6, IL8 and TNFα) in response to stimulation with IL1β. To induce the production of inflammatory mediators, A549 cells are plated at a final concentration of 3×10^5 cells/well of a 96 well flat bottom plate in F12-K medium supplemented with 10% fetal bovine serum, 100 units/ml penicillin and 100 μg/ml streptomycin (Gibco BRL Life Technologies). Cells are treated with or without inhibitors for 3 hrs then stimulated with 1 ng/ml rhIL1β (R & D Systems) for an additional 18 hrs at 37° C. with 5% CO2. The supernatants are removed and stored at −20° C. until they are to be assayed. The levels of inflammatory mediators are determined using commercial MSD cytokine kits (Meso Scale Discovery) as per the manufacturer's instructions. Standard curves are based on 7 steps of 4× serial dilutions, with a wide dynamic range of 10000 pg/ml to 2.4 pg/ml, and the blank in triplicate. Lower limit of detection (LLOD) is calculated at the commonly used 3× the standard deviation of the blank.
Compounds were tested in accordance with the above described assay, yielding the values described below: […]

Chain of TAK1-TAB1 (O43318 other isoform, or with tags, fused parts or gaps): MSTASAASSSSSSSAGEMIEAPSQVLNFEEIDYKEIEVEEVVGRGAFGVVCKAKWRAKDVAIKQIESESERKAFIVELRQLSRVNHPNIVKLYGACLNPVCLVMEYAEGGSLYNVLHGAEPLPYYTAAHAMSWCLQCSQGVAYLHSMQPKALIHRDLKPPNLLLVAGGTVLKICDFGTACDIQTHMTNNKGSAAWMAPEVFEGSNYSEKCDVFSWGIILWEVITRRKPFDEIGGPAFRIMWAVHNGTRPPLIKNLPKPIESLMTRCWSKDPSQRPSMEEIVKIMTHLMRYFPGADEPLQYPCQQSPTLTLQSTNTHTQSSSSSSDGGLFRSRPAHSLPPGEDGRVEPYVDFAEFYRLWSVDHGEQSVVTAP

IC50 [2] [µM]	Structure (SMILES)	IC50 [1] [µM]	activity at 5 µM [2] [%]	activity at 50 µM [2] [%]
0.078	CC(C)(C)COc1ncnc2[nH]cc(/C=C/C(N)=O)c12 [Example 192, (E)-3-(4-(neopentyloxy)-7H-pyrrolo[2,3-d]pyrimidin-5-yl)acrylamide]	0.0052	0	0
1.2	CC(C)(O)COc1ncnc2[nH]cc(/C=C/C(N)=O)c12 [Example 193, (E)-3-(4-(2-hydroxy-2-methylpropoxy)-7H-pyrrolo[2,3-d]pyrimidin-5-yl)acrylamide]	0.075	22	0
0.18	NC(=O)/C=C/c1c[nH]c2ncnc(OC3CCC(F)(F)CC3)c12 [Example 199, 3-[4-(4,4-difluoro-cyclohexyloxy)-7H-pyrrolo[2,3-c]pyrimidin-5-yl]-acrylamide]	0.016	0	0
0.8	COC(=O)/C=C/c1c[nH]c2ncnc(OCc3ccccc3)c12 [Example 201, (E)-3-(4-benzyloxy-7H-pyrrolo[2,3-d]pyrimidin-5-yl)-acrylic acid methylester]	0.35	26	1

Continued, molecule first:

Structure (SMILES)	IC50 [2] [µM]	IC50 [1] [µM]	activity at 5 µM [2] [%]	activity at 50 µM [2] [%]
CC(C)(C)Oc1ncnc2[nH]cc(/C=C/C(N)=O)c12 [Example 195, (E)-3-(4-(tert-butoxy)-7H-pyrrolo[2,3-d]pyrimidin-5-yl)acrylamide]	0.92	0.013	19	1
CC(C)COc1ncnc2[nH]cc(/C=C(\Cl)C(N)=O)c12 [Example 196, (Z)-2-chloro-3-(4-isobutoxy-7H-pyrrolo[2,3-d]pyrimidin-5-yl)acrylamide]	0.75	0.36	0	0
C=C(C#N)c1c[nH]c2ncnc(OCC(C)C)c12 [Example 197, 2-(4-isobutoxy-7H-pyrrolo[2,3-d]pyrimidin-5-yl)acrylonitrile]	–	0.75	128	75
CC(C)COc1ncnc2[nH]cc(C/C=C/C(N)=O)c12 [Example 198, 4-(4-isobutoxy-7H-pyrrolo[2,3-d]pyrimidin-5-yl)-but-2-enoic acid amide]	8.4	0.42	4	0
